Measurements as given in patent US20240191217A1, “CAS10-BASED ASSAY FOR NUCLEIC ACID DETECTION” (priority 2021, published 2024).

Key:
Format in all cases: biochemical
VmeNucC [1] = target: T1, VmeNucC (Vibrio metoecus, UniProt P0DUD6); test: Effect of ATP on NucC nuclease activity (fluorescent DNA duplex reporter)
T1 construct: His8 (TEV-cleavable, vector pEV5HisTEV) (N, cleaved yes); made in house; host or cells: E. coli C43(DE3)
Procedure: FIG. 4: Factors influencing NucC activity. Relative activities were determined by comparing the relative increase in fluorescence signal over time. A: Effect of NaCl concentration. B: NucC activity in different buffers. C: Effect of ATP on NucC nuclease activity.
(§1) All assays were performed on a FluoStar Omega plate reader (BMG Labtech) using fluorescence detection (λex/em 544/590 nm) and Corning black, non-binding half-area 96-well plates. […] Fluorescence was measured in 30 s intervals at 37° C. for up to 60 min. […] To determine limit of detection, the means of fluorescence intensities ranging between 28 and 32 min was analysed by one-way ANOVA and for multiple comparisons the Brown-Forsythe and Welch ANOVA test was applied. […] Relative activities between reaction conditions was determined by comparing the relative rates of the reactions. Rates were assumed to be proportional to the change in fluorescence signal over time and calculated from the slopes of linear regression analysis. Target specificity was analysed by extracting the time point (Tt) when the fluorescence intensity crossed a threshold value. The threshold value was set to ⅛^th of the maximal measured fluorescence signal of the reference target. […]

VmeNucC [2] = target: T1, VmeNucC; test: NucC assay using synthetic cA3 as activator; conditions: FIG. 6
Procedure: FIG. 6: NucC assay using synthetic cA3 as activator. A: Selected fluorescence signal curves. B: The fluorescence intensities of measurements from 28-30 min reaction time were used for one-way ANOVA analysis. Multiplicity adjusted P values were calculated by Dunnett's multiple comparisons test (N=7). The assay was performed in duplicate. C: selected data from B with expanded y scale. ns: not significant, P value>0.05; ***: P value<0.001; ****: P value<0.0001.
as §1, with “value.” for “value. The threshold value was set to ⅛^th of the maximal measured fluorescence signal of the reference target.”

NucC = target: T2, NucC (Vibrio metoecus, UniProt P0DUD6); test: Degradation of cA3 by NucC, liquid chromatography with UV detection; conditions: 100 μM cA3 with 0.5 μM NucC in reaction buffer for 60 min
T2 construct: His8 (TEV-cleavable, vector pEV5HisTEV) (N, cleaved yes); made in house; host or cells: E. coli C43(DE3)
T2 sequence (P0DUD6 whole entry): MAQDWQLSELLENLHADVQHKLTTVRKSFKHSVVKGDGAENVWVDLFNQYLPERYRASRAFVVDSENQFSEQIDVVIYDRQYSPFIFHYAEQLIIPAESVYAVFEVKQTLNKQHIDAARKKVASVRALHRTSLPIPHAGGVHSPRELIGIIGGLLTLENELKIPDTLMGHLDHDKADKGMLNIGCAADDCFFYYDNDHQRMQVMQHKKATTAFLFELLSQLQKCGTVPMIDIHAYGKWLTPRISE
Procedure: LC chromatograms with UV monitoring at 254 nm showing the reaction of 100 μM cA3 with 0.5 μM NucC under assay conditions after 15 and 60 min. A reaction in which NucC had been omitted was allowed to proceed for 60 min.
Some Csx1/Csm6 family proteins have an intrinsic “ring nuclease” activity for the degradation of their cOA activator—an activity that is probably important in vivo for the control of the CRISPR mediated immune response (9). In the context of assay development however, this is an undesirable characteristic. Furthermore, it is difficult to remove this activity from Csx1/Csm6 family proteins as the activity is closely linked with cOA binding and/or with the HEPN ribonuclease activity (18, 19). To determine whether NucC degrades its cA3 activator, we incubated 100 μM cA3 with […] NucC in reaction buffer for 60 min and monitored the products by liquid chromatography and UV detection (FIG. 5) after removal of the enzyme by ultracentrifugation (MWCO 3 kDa). […] This is perhaps not surprising given that NucC is a double stranded DNase and the activator is a cyclic ribonucleotide.

T1 sequence (P0DUD6 whole entry): as above

With Nc1ncnc2c1ncn2[C@@H]1O[C@H](COP(=O)(O)OP(=O)(O)OP(=O)(O)O)[C@@H](O)[C@H]1O [ATP] the NucC activity retained (VmeNucC [1]; ATP concentration of 2 mM) was 50% and the “effect of ATP on NucC” value (VmeNucC [1]; ATP concentrations above 500 μM) was “minor adverse effect”.
With Nc1ncnc2c1ncn2[C@@H]1O[C@@H]2COP(=O)(O)O[C@H]3[C@@H](O)[C@H](n4cnc5c(N)ncnc54)O[C@@H]3COP(=O)(O)O[C@H]3[C@@H](O)[C@H](n4cnc5c(N)ncnc54)O[C@@H]3COP(=O)(O)O[C@H]2[C@H]1O [cA3, cyclic tri-adenylate] the “amount of synthetic cyclic nucleotide giving a clear signal” value (VmeNucC [2]) was no more than 10 pM and the “depletion of cA3 by NucC” value (NucC) was “no significant depletion”.
